Legend:
Assay type in all cases: biochemical
[1] = target: T1, His-tagged modified Rubisco (Nicotiana tabacum, UniProt P00876); test: continuous coupled 3-PGA formation assay (NADH, A340); conditions: ECM form, 0.5 or 2 mM RuBP, 10 mM NaHCO3, 10 mM MgCl2, 5 mM ATP, pH 8, 30 °C; RuBP also inhibits as tight ER complex
T1 construct: gene rbcL; six histidines added to the C-terminus of the large subunit; from transgenic tobacco plants; with Ribulose bisphosphate carboxylase small subunit, chloroplastic
T1 sequence (P69249 58-180, other chains not shown): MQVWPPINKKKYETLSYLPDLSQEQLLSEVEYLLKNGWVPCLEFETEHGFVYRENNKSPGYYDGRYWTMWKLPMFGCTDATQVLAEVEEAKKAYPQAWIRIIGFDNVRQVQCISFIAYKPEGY

[2] = target: T2, tobacco Rubisco (wild-type) (Nicotiana tabacum, UniProt P00876); test: as above; conditions: ECM form, 0.5 or 2 mM RuBP, 10 mM NaHCO3, 10 mM MgCl2, 5 mM ATP, pH 8, 30 °C; RuBP also inhibits as tight ER complex
T2 construct: gene rbcL; native, purified from tobacco leaves; converted to ER form or carbamylated ECM form; with Ribulose bisphosphate carboxylase small subunit, chloroplastic
T2 sequence (P69249 58-180, other chains not shown): as above

Arabidopsis β-RCA = target: T3, Arabidopsis β-RCA (Arabidopsis thaliana, UniProt P10896); test: continuous coupled Rubisco activation assay (dPGM, enolase, PEP carboxylase, malate dehydrogenase; NADH, A340); conditions: ADP plus ATP 5 mM total at ADP:ATP 0.33; tobacco Rubisco ER form not restated for this set; pH 8, 30 °C, 10 mM MgCl2
T3 construct: recombinant, expressed in Escherichia coli and purified
T3 sequence (P10896 59-446 isoform P10896-2): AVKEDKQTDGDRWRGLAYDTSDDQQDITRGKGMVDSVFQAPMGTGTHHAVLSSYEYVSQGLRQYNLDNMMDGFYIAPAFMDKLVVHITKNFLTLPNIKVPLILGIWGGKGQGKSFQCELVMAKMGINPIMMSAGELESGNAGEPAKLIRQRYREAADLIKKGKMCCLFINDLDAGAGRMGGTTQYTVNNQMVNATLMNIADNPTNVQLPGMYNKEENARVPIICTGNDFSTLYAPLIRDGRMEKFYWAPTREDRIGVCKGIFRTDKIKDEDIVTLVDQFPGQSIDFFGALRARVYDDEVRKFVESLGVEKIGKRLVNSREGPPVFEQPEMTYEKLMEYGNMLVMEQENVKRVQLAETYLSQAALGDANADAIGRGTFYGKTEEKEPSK

| Compound | continuous coupled 3-PGA formation assay (NADH, A340) [1] | continuous coupled 3-PGA formation assay (NADH, A340) [2] | % inhibition at 0.33 ADP:ATP (Arabidopsis β-RCA) |
| --- | --- | --- | --- |
| O=C(COP(=O)(O)O)[C@H](O)[C@H](O)COP(=O)(O)O [RuBP] | specific activity of the ECM form of wild-type and modified Rubisco | specific activity of the ECM form of wild-type and modified Rubisco | – |
| Nc1ncnc2c1ncn2[C@@H]1O[C@H](COP(=O)(O)OP(=O)(O)O)[C@@H](O)[C@H]1O [ADP] | – | – | 25% |

Reference: paper PMC3923112, “A non-radioactive method for measuring Rubisco activase activity in the presence of variable ATP: ADP ratios, including modifications for measuring the activity and activation state of Rubisco” (Photosynthesis Research, 2014)
